Assay results from patent US11187660B2, “Fluorescent probes for monitoring voltage by photo-induced electron transfer” (The Regents of the University of California, priority 2011, dated 2021).

Tests used:
HEK cells [1] = test: Bleach rate in HEK cells; type: cell-based, human; conditions: for bleach rate: HEK cells, 7 W/cm^2
Description: The dibutyl (VFx.4.Cl) dyes stain the cell membranes of HEK293 cells when loaded at a concentration of 2 μM for 15 min at 37° C. in buffer with 0.1% DMSO as cosolvent (FIG. 9A, and FIG. 10). […] The bleach rates of the probes were tested in HEK cells and compared with di-4-ANEPPS. The bleach rates for VF1.4.Cl, VF2.4.Cl, and VF2.1.Cl at 7 W/cm^2 were measured to be 3.9±0.1×10^−2 s^−1, 1.8±0.1×10^−2 s^−1, and 8.0±0.1×10^−3 s^−1, respectively.
For studies to determine excitation sensitivity of dyes, illumination was provided by a Polychrom IV light source (T.I.L.L. Photonics GMBH) with a mechanical shutter (Uniblitz VS25). For all other studies, light was provided by an Xenon arc lamp powered by an Optiquip Power supply (Optiquip) with a mechanical shutter controlled by a Lambda 10-2 controller (Sutter). Light from the Xenon arc lamp was filtered through a 480 nm filter (30 nm bandpass, Chroma), a 510 nm dichroic (Semrock), a 530 nm emission filter (50 nm bandpass, Semrock), and focused through a 40×/1.4 oil objective. For di-4-ANEPPS imaging, a 625 nm emission filter with a 50 nm bandpass was used. Bleaching studies used identical illumination conditions (480/30 nm excitation, 510 nm dichroic, 7 W/cm^2 output) and were corrected by normalizing for the extinction coefficient at the excitation wavelengths (465-495 nm).

[2] = Absorbance and emission spectra in aqueous buffer with Triton X-100; type: physicochemical; conditions: 5 mM sodium phosphate, pH 9, 0.1% Triton X-100
Description: FIG. 8A, FIG. 8B, and FIG. 8C show the normalized absorbance and emission spectra for exemplary compounds of the invention in 5 mM sodium phosphate, pH 9 with 0.1% Triton X-100. Black lines are absorbance spectra; grey lines are emission spectra. a) VF1.4.Cl, b) VF2.4.Cl, and c) VF2.1.Cl.
All dyes feature emission and excitation profiles typical of dichlorofluoresceins (VF1.4.Cl: λmax=521 nm, ε=93,000 M^−1·cm^−1, λem=534 nm, Φ=0.24; VF2.4.Cl: λmax=522 nm, ε=97,000 M^−1·cm^−1, λem=536 nm, Φ=0.054; VF2.1.Cl: λmax=522 nm, ε=98 000 M^−1·cm^−1, λcm=535 nm, Φ=0.057, 5 mM sodium phosphate, pH 9, 0.1% Triton X-100) (FIG. 8).
UV absorbance and fluorescence spectra were recorded on a Cary 3E (Varian) and Fluorolog 2 (Spex) fluorimeter, respectively. Analytical, semi-preparative, and preparative HPLCs were performed on Agilent HPLCs, with Luna C18(2) columns (Phenomenex) using water (solvent A) and acetonitrile (solvent B) with 0.05% TFA as an additive. Low resolution ESI mass spectrometry was performed on an Agilent LC/MSD Trap XCT coupled to an Agilent HPLC. High resolution mass spectra were acquired on a ThermoFisher Orbitrap XL hybrid mass spectrometer. ^1H NMR spectra were collected in CDCl3 or d6-DMSO (Cambridge Isotope Laboratories, Cambridge, Mass.) at 25° C. on a 400 Varian Mercury Plus or Jeol ECA 500 spectrometer at the Department of Chemistry and Biochemistry NMR Facility at the University of California, San Diego. All chemical shifts are reported in the standard δ notation of parts per million using the peak of residual proton signals of CDCl3 or d6-DMSO as an internal reference.

HEK293 cells [3] = test: Voltage sensitivity of fluorescence in voltage-clamped HEK cells (whole-cell recording); type: cell-based, human
Text: Membrane voltage of cells loaded with VF1.4.Cl or VF2.4.Cl were controlled by making tight-seal whole-cell recordings. Cells were maintained at a holding potential of −60 mV and stepped for 50 ms to various depolarizing and hyperpolarizing potentials (FIG. 5A), while simultaneously acquiring epifluorescence images. For both sensors, depolarizing steps result in fluorescence increases while hyperpolarizing steps decrease fluorescence intensity, in keeping with our proposed mechanism. […] For di-4-ANEPPS, typical values are 0.08-0.12% per mV. The larger changes for VF1.4.Cl and VF2.4.Cl compared to di-4-ANEPPS are somewhat expected, since a PeT-based voltage sensor samples the entire emission spectrum, whereas electrochromic dyes are limited to the edge of the spectrum only. For both probes, the voltage responses are linear across the physiologically relevant ranges of −100 mV to +100 mV. To assess the speed of the optical response to voltage, VF2.4.Cl signals were monitored in response to voltage steps of 100 mV from a holding potential of −60 mV.
We characterized the voltage sensitivity of all three indicators by making tight-seal whole-cell recordings of HEK293 cells stained with the VF sensors. Cells were voltage-clamped at −60 mV holding potential and sequentially stepped to depolarizing and hyperpolarizing potentials at 20-mV increments (FIG. 9B). For all three dyes, depolarizing steps produced fluorescence increases, whereas hyperpolarizing steps produced fluorescence decreases, in keeping with the proposed PeT mechanism. The fluorescence response is linear over the range of −100 mV to +100 mV (FIG. 9C), with voltage sensitivities ΔF/F per 100 mV of 20±1% for VF1.4.Cl and 25±1% for VF2.4.Cl. This statistically significant increase in voltage sensitivity (P<0.05, two-tailed Student t test) is expected upon increasing the length of the molecular wire, and is 2.5- to 4-times more sensitive than di-4-ANEPPS, which, in our hands, gives sensitivities of between 6% and 10% ΔF/F per 100 mV. […] To investigate the speed of response of VF probes, we again made whole-cell recordings of cells stained with VF2.4.Cl, applied 100-mV depolarizing steps from a holding potential of −60 mV, and recorded both the electrophysiological signals and the optical signals.
Electrophysiological recordings of HEK293 cells and cultured neurons were performed with an Axopatch 200A or 200B amplifier (Molecular Devices) at room temperature. The signals were digitized with Digidata 1332A and recorded with pCLAMP 9 software (Molecular Devices) on a PC. Analysis of electrophysiological data was done with AxoGraph X (AxoGraphX), pCLAMP 9, and/or ClampFit (Molecular Devices). For most experiments the extracellular solution consisted of (in mM) 145 NaCl, 20 glucose, 10 HEPES, 3 KCl, 2 CaCl2, 1 MgCl2 (pH 7.35, 310 mOsm). The intracellular solution contained (in mM) 115 potassium gluconate, 10 BAPTA tetrapotassium salt, 10 HEPES, 5 NaCl, 10 KCl, 2 ATP disodium salt, 0.3 GTP trisodium salt (pH 7.25, 290 mOsm).
For studies to determine excitation sensitivity of dyes, illumination was provided by a Polychrom IV light source (T.I.L.L. Photonics GMBH) with a mechanical shutter (Uniblitz VS25). For all other studies, light was provided by an Xenon arc lamp powered by an Optiquip Power supply (Optiquip) with a mechanical shutter controlled by a Lambda 10-2 controller (Sutter). […]

HEK cells [4] = test: Excitation wavelength dependence of voltage response in HEK cells; type: cell-based, human; conditions: 100 mV depolarizing steps, excitation 445 to 500 nm in 5 nm increments for VF2.4.Cl
Text: The ΔF/F for VF2.4.Cl is relatively insensitive to the excitation wavelength. As opposed to di-4-ANEPPS and other electrochromic dyes (ref the biochemistry paper and the ANINNE6 2004 Denk paper), which are highly sensitive to excitation wavelength, PeT-based sensors yield fluorescent responses which are invariant across their excitation spectra. To establish the invariant nature of the fluorescence response, HEK cells were loaded, as before, with VF2.4.Cl and subjected to depolarizing steps of 100 mV, each time varying the excitation wavelength. […] In contrast, di-4-ANEPPS varies by nearly 100%. Excitation at the red edge of the spectrum gives a maximal response whereas excitation at the blue edge gives a response that is some 10- to 20-fold less than the maximal response.
The fluorescence response of VF2.4.Cl to voltage changes is insensitive to the excitation wavelength, as is true for PeT-based probes, such as fluo-3 and Calcium Green-1. We assayed the wavelength dependence of VF2.4.Cl by changing the excitation wavelength in 5-nm steps and determined that the fluorescence response of VF2.4.Cl to a 100-mV depolarization from a holding potential of −60 mV varied only about 15% when testing wavelengths from 445 to 500 nm (FIG. 11C). […]

HEK cells [5] = conditions: literature (32); cited from earlier work
HEK293 cells [6] = conditions: typical values for di-4-ANEPPS; cited from earlier work
[7] = test system: cultured hippocampal neurons; conditions: cultured hippocampal neurons (25); cited from earlier work

Question: Which bleach rate (HEK cells [1]) does the source give for `CCCCN(CCCC)c1ccc(/C=C/c2ccc(-c3c4cc(Cl)c(=O)cc-4oc4cc(O)c(Cl)cc34)c(S(=O)(=O)O)c2)cc1` [VF1.4.Cl, (E)-5-(4-(dibutylamino)styryl)-2-(2,7-dichloro-6-hydroxy-3-oxo-3H-xanthen-9-yl)benzenesulfonic acid] here?
Answer: The bleach rate was 3.9±0.1×10^−2 s^−1.

Question: What about the “bleach rate, fold smaller than di-4-ANEPPS” value (HEK cells [1]; identical illumination conditions) of the same molecule?
Answer: The value was “two-”.

Question: And the Φ [2]?
Answer: Its Φ is 0.24.

Question: What about the ε [2] of the same molecule?
Answer: The ε was 93,000 M^−1·cm^−1.

Question: And the λem [2]?
Answer: The λem was 534 nm.

Question: And the λmax [2]?
Answer: Its λmax is 521 nm.

Question: What about the “voltage sensitivity ΔF/F per 100 mV” value (HEK293 cells [3]; HEK293 cells voltage-clamped at −60 mV holding potential) of the same molecule?
Answer: Its value is 20±1%.

Question: What about the “sensitivity, fractional fluorescence change (ΔF/F) versus change in membrane potential” value (HEK293 cells [3]; HEK cells, holding potential −60 mV) of the same molecule?
Answer: Its value is 0.20±0.01 % per mV.

Question: With `CCCCN(CCCC)c1ccc2cc(/C=C/c3cc[n+](CCCS(=O)(=O)[O-])cc3)ccc2c1` [di-4-ANEPPS] as the molecule, how does the “variation of fractional fluorescence response across excitation spectrum” value (HEK cells [4]) read?
Answer: Its value is about 100%.

Question: And the bleach rate (HEK cells [1])?
Answer: Its bleach rate is 6.9±0.1×10^−2 s^−1.

Question: And the “variation of response over excitation spectrum” value (HEK cells [5])?
Answer: The value was about 100%.

Question: What about the “sensitivity ΔF/F, typical values” (HEK293 cells [6]) of the same molecule?
Answer: Its value is 0.08-0.12 % per mV.

Question: With `Cc1ccc(N(CC(=O)O)CC(=O)O)c(OCCOc2cc(-c3c4cc(Cl)c(=O)cc-4oc4cc(O)c(Cl)cc34)ccc2N(CC(=O)O)CC(=O)O)c1` [fluo-3] as the molecule, how does the “ΔF/F for action potentials” value [7] read?
Answer: Its value is “up to 150%”.
